This test has as its system P388 leukemia ip, CD2F1 mice, survival T/C. Description: NCI In Vivo Anticancer Drug Screen. Data for tumor model P388 Leukemia (intraperitoneal) in CD2F1 (CDF1) mice. The note with it: endpoint: median survival time, higher = longer survival. An outline of the steps:
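Mice carrying the transplanted tumor received test compound or vehicle. Survival was recorded in each group, and the value is the treated-group measurement divided by that of the vehicle-treated control group.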

The mark [1] stands for this setting: dose: 50.0 mg/kg/injection, schedule: Q01DX005 (ip), vehicle: saline with Tween-80.
Where [2] appears, read: dose: 100.0 mg/kg/injection, schedule: Q01DX005 (ip), vehicle: saline with Tween-80.
Where [3] appears, read: dose: 50.0 mg/kg/injection, schedule: Q01DX009 (ip), vehicle: saline with Tween-80.
Setting [4] is: dose: 100.0 mg/kg/injection, schedule: Q01DX009 (ip), vehicle: saline with Tween-80.
Setting [5] is: dose: 200.0 mg/kg/injection, schedule: Q01DX009 (ip), vehicle: saline with Tween-80.
[6] abbreviates: dose: 400.0 mg/kg/injection, schedule: Q01DX009 (ip), vehicle: saline with Tween-80.

Structures are written as SMILES. “And” between values parts separate entries of the source, which are not always exact repeats. Identical values can stand only once. Inconclusive results and toxic doses are left out.

Regarding `CN=C(N)N/N=C/c1ccc2c(c1)Cc1ccccc1-2`, the T/C (dose: 6.25 mg/kg/injection, schedule: Q04DX002 (ip), vehicle: saline with Tween-80) is 106 % of control and 122 % of control; the T/C (dose: 12.5 mg/kg/injection, schedule: Q04DX002 (ip), vehicle: saline with Tween-80) was 109 % of control; the T/C (dose: 25.0 mg/kg/injection, schedule: Q04DX002 (ip), vehicle: saline with Tween-80) was 107 % of control; the T/C (dose: 50.0 mg/kg/injection, schedule: Q04DX002 (ip), vehicle: saline with Tween-80) is 119 % of control and 124 % of control; the T/C (dose: 100.0 mg/kg/injection, schedule: Q04DX002 (ip), vehicle: saline with Tween-80) was 118 % of control.

Regarding `Cc1cc(NN=O)nc(C)n1`, the T/C was 98 % of control (dose: 3.12 mg/kg/injection, schedule: Q01DX009 (ip), vehicle: water); 98 % of control (dose: 6.25 mg/kg/injection, schedule: Q01DX009 (ip), vehicle: water); 98 % of control (dose: 12.5 mg/kg/injection, schedule: Q01DX009 (ip), vehicle: water); 100 % of control and 101 % of control (dose: 25.0 mg/kg/injection, schedule: Q01DX009 (ip), vehicle: water); 104 % of control and 106 % of control (dose: 50.0 mg/kg/injection, schedule: Q01DX009 (ip), vehicle: water); 166 % of control (dose: 200.0 mg/kg/injection, schedule: Q01DX009 (ip), vehicle: water).

On to `c1ccc2c3c([nH]c2c1)CN1CCCCC1C3` (configuration not stated), for which the T/C reads like this: (dose: 6.25 mg/kg/injection, schedule: Q01DX005 (ip), vehicle: Klucel (hydroxypropylcellulose) (HPC)) 92 % of control; (dose: 12.5 mg/kg/injection, schedule: Q01DX005 (ip), vehicle: Klucel (hydroxypropylcellulose) (HPC)) 92 % of control; (dose: 25.0 mg/kg/injection, schedule: Q01DX005 (ip), vehicle: Klucel (hydroxypropylcellulose) (HPC)) 93 % of control; (dose: 50.0 mg/kg/injection, schedule: Q01DX005 (ip), vehicle: Klucel (hydroxypropylcellulose) (HPC)) 99 % of control; (dose: 100.0 mg/kg/injection, schedule: Q01DX005 (ip), vehicle: Klucel (hydroxypropylcellulose) (HPC)) 96 % of control; (dose: 200.0 mg/kg/injection, schedule: Q01DX005 (ip), vehicle: Klucel (hydroxypropylcellulose) (HPC)) 112 % of control.

Turning to `CCCCCCCCCCCC1=C(O)C(=O)C(Br)=C(O)C1=O`, the T/C is 92 % of control under setting [1] and 92 % of control under setting [2].

For the compound `CC1(O)Cc2c(O)c3c(c(O)c2CC1O)C(=O)C=CC3=O` (configuration not stated), the T/C runs as follows: (dose: 3.13 mg/kg/injection, schedule: Q04DX003 (ip), vehicle: distilled water + Tween-80) 100 % of control; (dose: 6.25 mg/kg/injection, schedule: Q04DX003 (ip), vehicle: distilled water + Tween-80) 100 % of control; (dose: 12.5 mg/kg/injection, schedule: Q04DX003 (ip), vehicle: distilled water + Tween-80) 97 % of control; (dose: 25.0 mg/kg/injection, schedule: Q04DX003 (ip), vehicle: distilled water + Tween-80) 100 % of control and 96 % of control.

Regarding `O=C1C=CCC12CC=CC2=O`, the T/C is 100 % of control and 105 % of control (dose: 6.25 mg/kg/injection, schedule: Q01DX001 (ip), vehicle: Klucel (hydroxypropylcellulose) (HPC)); 117 % of control and 94 % of control (dose: 12.5 mg/kg/injection, schedule: Q01DX001 (ip), vehicle: Klucel (hydroxypropylcellulose) (HPC)); 100 % of control and 123 % of control (dose: 25.0 mg/kg/injection, schedule: Q01DX001 (ip), vehicle: Klucel (hydroxypropylcellulose) (HPC)).

For the compound `CCCCCC(CN(C)C)C(=O)/C=C/c1ccccc1Cl` (configuration not stated), the T/C is 104 % of control (dose: 6.25 mg/kg/injection, schedule: Q01DX009 (ip), vehicle: saline); 102 % of control (dose: 12.5 mg/kg/injection, schedule: Q01DX009 (ip), vehicle: saline); 93 % of control (dose: 25.0 mg/kg/injection, schedule: Q01DX009 (ip), vehicle: saline); 101 % of control (dose: 50.0 mg/kg/injection, schedule: Q01DX009 (ip), vehicle: saline).

In the case of `Nc1nc(Br)nc2c1ncn2C1CC(O)C(CO)O1` (configuration not stated), the T/C is 118 % of control (dose: 1.5 mg/kg/injection, schedule: Q01DX005 (ip), vehicle: suspension in saline); 121 % of control (dose: 3.0 mg/kg/injection, schedule: Q01DX005 (ip), vehicle: suspension in saline); 108 % of control (dose: 15.0 mg/kg/injection, schedule: Q01DX005 (ip), vehicle: suspension in saline); 153 % of control and 155 % of control (dose: 15.0 mg/kg/injection, schedule: Q03HX009 (ip), vehicle: saline); 164 % of control (dose: 30.0 mg/kg/injection, schedule: Q03HX009 (ip), vehicle: saline with Tween-80); 167 % of control and 181 % of control (dose: 30.0 mg/kg/injection, schedule: Q03HX009 (ip), vehicle: saline). Further, the T/C is 117 % of control (dose: 60.0 mg/kg/injection, schedule: Q01DX005 (ip), vehicle: suspension in saline); 155 % of control (dose: 60.0 mg/kg/injection, schedule: Q03HX009 (ip), vehicle: saline with Tween-80); 165 % of control and 172 % of control (dose: 60.0 mg/kg/injection, schedule: Q03HX009 (ip), vehicle: saline); 122 % of control (dose: 120.0 mg/kg/injection, schedule: Q01DX005 (ip), vehicle: suspension in saline); 157 % of control (dose: 120.0 mg/kg/injection, schedule: Q03HX009 (ip), vehicle: saline with Tween-80); 172 % of control (dose: 120.0 mg/kg/injection, schedule: Q03HX009 (ip), vehicle: saline).

As for `CCN(CC)C(=O)c1cccc2c1OCO2`, the T/C is 94 % of control (dose: 60.0 mg/kg/injection, schedule: Q01DX005 (ip), vehicle: saline with Tween-80); 98 % of control (dose: 120.0 mg/kg/injection, schedule: Q01DX005 (ip), vehicle: saline with Tween-80); 95 % of control (dose: 240.0 mg/kg/injection, schedule: Q01DX005 (ip), vehicle: saline with Tween-80).

Take `CCCCCCCCC(=O)OCCNC(=O)C(C)OC(=O)CCCCCCCC` (configuration not stated): the T/C by setting is: (dose: 100.0 mg/kg/injection, schedule: Q01DX009 (ip), vehicle: Klucel (hydroxypropylcellulose) (HPC)) 96 % of control; (dose: 200.0 mg/kg/injection, schedule: Q01DX009 (ip), vehicle: Klucel (hydroxypropylcellulose) (HPC)) 100 % of control; (dose: 400.0 mg/kg/injection, schedule: Q01DX009 (ip), vehicle: Klucel (hydroxypropylcellulose) (HPC)) 98 % of control.

Regarding `O=C(CCCCCCC(=O)ON1C(=O)CCC1=O)ON1C(=O)CCC1=O`, under setting [1], the T/C is 122 % of control.

In the case of `O=C(O)c1ccc(NC(=O)c2ccco2)cc1`, the T/C runs as follows: under setting [3], 88 % of control; under setting [4], 97 % of control; under setting [5], 89 % of control.

Consider `COc1cccc(OC)c1N`, for which the T/C under setting [3] was 108 % of control, the T/C under setting [4] is 108 % of control, the T/C under setting [5] was 92 % of control and the T/C under setting [6] was 90 % of control.

Turning to `COc1nc(OC)c2cnn(-c3ccc(Cl)cc3)c2n1`, the T/C (dose: 30.0 mg/kg/injection, schedule: Q01DX005 (ip), vehicle: Klucel (hydroxypropylcellulose) (HPC)) was 89 % of control; the T/C (dose: 60.0 mg/kg/injection, schedule: Q01DX005 (ip), vehicle: Klucel (hydroxypropylcellulose) (HPC)) was 89 % of control; the T/C (dose: 120.0 mg/kg/injection, schedule: Q01DX005 (ip), vehicle: Klucel (hydroxypropylcellulose) (HPC)) was 92 % of control; the T/C (dose: 240.0 mg/kg/injection, schedule: Q01DX005 (ip), vehicle: Klucel (hydroxypropylcellulose) (HPC)) was 89 % of control.

Regarding `Cc1cccc(N2C(=O)CSC2=S)c1`, the T/C is 109 % of control (dose: 12.5 mg/kg/injection, schedule: Q01DX009 (ip), vehicle: saline with Tween-80); 100 % of control (dose: 25.0 mg/kg/injection, schedule: Q01DX009 (ip), vehicle: saline with Tween-80); 103 % of control under setting [3].

In the case of `O=CN(CC(=O)O)CC(=O)O`, the T/C by setting is: (dose: 50.0 mg/kg/injection, schedule: Q01DX005 (ip), vehicle: saline) 100 % of control; (dose: 100.0 mg/kg/injection, schedule: Q01DX005 (ip), vehicle: saline) 100 % of control; (dose: 200.0 mg/kg/injection, schedule: Q01DX005 (ip), vehicle: saline) 102 % of control.

As to `COC(=O)CCC(=O)N(C)CCc1c[nH]c2ccccc12`, the T/C reads like this: under setting [4], 90 % of control; under setting [5], 90 % of control; under setting [6], 90 % of control.

With `CC/C(=N\OC(=O)Nc1ccccc1)c1ccc(OC(=O)Nc2ccccc2)cc1`, the T/C under setting [1] was 99 % of control; the T/C under setting [2] is 95 % of control; the T/C (dose: 200.0 mg/kg/injection, schedule: Q01DX005 (ip), vehicle: saline with Tween-80) was 104 % of control.

The record behind these values is PubChem BioAssay AID330 (DTP/NCI, 2004).
